Results as given in patent US6046228A, “Anti-viral pharmaceutical compositions containing saturated 1,2-dithiaheterocyclic compounds and uses thereof” (priority 1999, dated 2000).

Tests used:
[1] = tested on: monocyte-macrophage (Mo/M.PHI.) cultures; assay: cytotoxicity in monocyte-macrophage cultures; assay type: cell-based
Experimental: (§1) Initial anti-HIV screening was performed with CEM-SS cells and HIV-1RFusing the XTT cytoprotection assay as previously described (Weislow et al., J. National Cancer Inst. 81: 577-586, (1989)). HIV-1 isolates included common laboratory stains (RF, IIIB and MN), as well as a panel of HIV-1 clinical isolates (Cushman et al., J. Med. Chem. 37: 3040-3050, (1994)). The pyridone-resistant HIV-1A17 isolate (Nunberg et al., J. Virol., 65: 4887-4892 (1991)) was obtained from Emilio Emini at Merck Sharpe and Dohme Laboratories. Phytohemagglutinin-stimulated human peripheral blood lymphocytes (PBLs) and fresh monocyte-macrophage (Mono/MF) cultures were prepared and utilized in antiviral assays as previously described (Rice et al., Proc. Nat'l. Academy Science, USA 90: 9721-9724, (1993)); (Cushman et al., J. Med. Chem. 37: 3040-3050, (1994)). EC50 values for these cultures indicate the drug concentration that provided a 50% reduction in viral p24 production. […] The compounds can be synthesized according to the teachings of Singh et al., Sulfur Letters 8: 107-114, (1988). The 4,5-cis-dihydroxy(1,1-dioxy-1,2,-dithiohexane) compound (NSC 624151) has been abbreviated as 624151 for convenience. MT-2, MT-4, U1, HeLa-CD4-LTR-β-gal and 174xCEM cells were obtained from the AIDS Research and Reference Program (National Institute of Allergy and Infectious Disease, National Institutes of Health, Bethesda, Md. USA), as were the HIV-2MS and the AZT-resistant HIV-1G910-6 isolates.

HIV-1 SK1 = assay: XTT cytopathicity assay, SK1; assay type: cell-based; details: Human immunodeficiency virus 1, CEM-SS
Experimental: as §1, with “MT-2, MT-4, U1, HeLa-CD4-LTR-β-gal and 174xCEM cells were obtained from the AIDS Research and Reference Program (National Institute of Allergy and Infectious Disease, National Institutes of Health, Bethesda, Md. USA), as were the HIV-2MS and the AZT-resistant HIV-1G910-6 isolates.” left out

HIV-1 N119(Nev^R) = assay: XTT cytopathicity assay, nevirapine-resistant N119; assay type: cell-based; details: CEM-SS
Experimental: as §1, with “MT-2, MT-4, U1, HeLa-CD4-LTR-β-gal and 174xCEM cells were obtained from the AIDS Research and Reference Program (National Institute of Allergy and Infectious Disease, National Institutes of Health, Bethesda, Md. USA), as were the HIV-2MS and the AZT-resistant HIV-1G910-6 isolates.” left out

HIV-1IIIB = assay: combination antiviral XTT assay, CEM-SS cells, method of Prichard and Shipman; assay type: cell-based; details: for synergy volume: 95% confidence level
Experimental: Analysis of drug combinations was performed utilizing the XTT assay described above, with statistical evaluations performed according to the method of Prichard and Shipman (Antiviral Res. 14: 181-206, (1990)). Combination antiviral XTT assays were performed with CEM-SS cells utilizing HIV-1IIIB as previously described (Buckheit et al., Antimicrobial Agents and Chemotherapy 39: 2718-2727, (1995)). The standard anti-HIV assay was altered for combination analysis by increasing the multiplicity of infection 3-fold, allowing greater statistical consistency in these assays.
The synergy volumes for the combinatorial anti-HIV activities calculated at the 95% confidence level were 37, 80, 44, 55 and 16 μM^2, respectively, for each combination. Synergy volumes that range from […] represent additivity and volumes>50% represent synergistic responses. […] Thus, it is anticipated that the present dithiane dioxide compounds can be used in pharmaceutical compositions further including other antiviral agents.

[2] = tested on: fusion of cells expressing CD4 and gp120; assay: fusion of target cells expressing CD4 and gp120; assay type: cell-based; details: in words
HIV-1 protease [3] = molecular target: T1, HIV-1 protease (Human immunodeficiency virus type 1 group M subtype B, UniProt P04585); assay: HIV-1 protease activity, reversed phase HPLC assay; assay type: biochemical
T1 construct: the purified HIV-1 protease and integrase enzymes

HIV-1 p7NC protein = molecular target: T2, HIV-1 p7NC protein (Human immunodeficiency virus type 1 group M subtype B, UniProt P04591); assay: TSQ zinc release assay from p7NC; assay type: biochemical; details: 10 μM, 2 hours, FIG. 1(B), in words
T2 construct: recombinant HIV-1 p7NC protein
Experimental: Fluorescence measurements of the Trp^37 residue in the C-terminal zinc finger of the recombinant HIV-1 p7NC protein were performed as previously described (Rice et al., Science 270:1194, 1995). The p7NC protein was prepared at 20 μg/ml in 10 mM sodium phosphate buffer (pH 7.0), treated with 25 μM of each compound, then after indicated time intervals the samples were diluted 1/10 in 10 mM sodium phosphate buffer (pH 7.0) and the fluorescence intensity measured. The excitation and emission wavelengths utilized with the Shimadzu RF5000 spectrofluorimeter were 280 nm and 351 nm, respectively. In an alternate assay, the zinc-selective fluorescent probe N-(6-methoxy-8quinolyl-)-p-toluenesulfonamide (TSQ, Molecular Probes, Eugene, Oreg.) originally described by Fredrickson (J. Neurosci. Meth. 20:91, 1987) was utilized to measure zinc released from the p7NC protein in vitro. Briefly, 2 μM recombinant HIV-1 p7NC protein in 10 mM sodium phosphate buffer, pH 7.0, 10% glycerol was treated with 10 μM 624151 ([…] total volume in 96-well plates), and the time-dependent increase in fluorescence was measured on a Labsystems Fluoroskan II (360 nm excitation filter and 460 nm emission filter) over a period of 2 hours. […] Virus pellets were resolved by non-reducing SDS-PAGE and analyzed by immunoblot using monospecific rabbit antisera to the purified p7NC protein. […]

HIV-1 protease [4] = molecular target: T1, HIV-1 protease; assay: processing of purified recombinant Pr55^gag by purified HIV-1 protease; assay type: biochemical; details: data not shown, in words

Compound `O=S1(=O)C[C@H](O)[C@H](O)CS1` (relative stereo) [NSC 624151, cis-1,1-dioxo[1,2]dithiane-4,5-diol] has an IC50 [1] greater than 100 µM, an EC50 (HIV-1 SK1) of 22.7 µM and an EC50 (HIV-1 N119(Nev^R)) of 18 µM. The “combination response with other antiviral agents” value (HIV-1IIIB; AZT, ddC, 3TC, Costatolide or KNI-272, in words) was “additive to slightly synergistic response in combination with other antiviral agents, but was not antagonistic with any agents tested”, the synergy volume (HIV-1IIIB; in combination with 3TC) was 44 μM^2 and the synergy volume (HIV-1IIIB; in combination with AZT) was 37 μM^2. The synergy volume (HIV-1IIIB; in combination with Costatolide) was 55 μM^2, the synergy volume (HIV-1IIIB; in combination with KNI-272 protease inhibitor) was 16 μM^2 and the synergy volume (HIV-1IIIB; in combination with ddC) was 80 μM^2. The inhibition of fusion [2] was “did not inhibit”, the “inhibition of HIV-1 protease” value (HIV-1 protease [3]; in words) was “not inhibited” and the IC50 (HIV-1 protease [3]; read-out: Protease Activity ID50) was greater than 100 µM. The “zinc ejection from p7NC measured with TSQ” value (HIV-1 p7NC protein) was “promote zinc ejection from the p7NC protein in vitro was confirmed” and the “inhibition of purified HIV-1 protease processing of recombinant Pr55^gag” value (HIV-1 protease [4]) was “not to inhibit purified HIV-1 protease”.
